Legend:
[1] = Entrapment of active agent in PLGA beads with different anti-solvents, amount retained by HPLC and/or NMR; assay type: physicochemical; parameters: % active agent retained in solid beads: concentration or dose not given beside the values; conditions: for % active agent retained in solid beads: 50:50 PLGA P2191 beads
Method: The entrapment of pharmaceutically active compound was investigated to determine the effect of using different anti-solvents.
The general methodology described above was used. Leuprolide acetate dissolved in DMSO/PLGA mixture at between 1-5 mg/ml of solution. The 50:50 lactide/glycolide polymer P2191 used in Example 3 was used in this Example, at a concentration of 10% w/v.
The flow rates were as used in Example 1. On entering the cooling part of the device, the functional fluid formed frozen droplets. Desolvation of the frozen droplets caused the formation of solid beads.
Various anti-solvents were investigated to determine the effect of the anti-solvent on the amount of active agent (leuprolide acetate) retained in the beads. HPLC and/or NMR were used to determine the amount of leuprolide acetate retained.

[2] = Dissolution in warm water of particles precipitated from 10% w/v aqueous solution added dropwise to ethanol; assay type: physicochemical; conditions: particles/precipitate formed in ethanol from 10% w/v solution in water
Method: It is anticipated that such droplets may be of particular use in assays, since the saccharide would be readily soluble in water or aqueous solution. Solutions of 10% w/v of mannitol and dextran in water were prepared. The solutions were then added dropwise to ethanol. The dextran solution produced amorphous particles in ethanol. […] It is anticipated that a solution comprising both mannitol and dextran may be beneficial in that dextran appears to be suitable for forming discrete particles and mannitol may well be a suitable bulking agent. Furthermore, the mannitol may give the beads a more manageable consistency. Attempts were made to make solid beads from the polyol solutions using the apparatus of FIGS. 1-4. […] It is thought that further cooling of the apparatus is required in order to freeze the droplets. This may be achieved, for example, by improving the cooling capability of the cooler. A solution of 10% w/v of mannitol in dimethyl sulphoxide (DMSO) was prepared. […] It is therefore anticipated that droplets made from this solution would freeze using the apparatus of FIGS. 1 to 4, and that solvent may be extracted from the frozen droplets using an anti-solvent, such as ethanol. As mentioned above, it is anticipated that the saccharide-based droplets may be used in assays. […]

Row | % active agent retained in solid beads ([1]; anti-solvent Ethanol and pentanol) [%] | % active agent retained in solid beads ([1]; anti-solvent Heptanol (batch 1)) [%] | % active agent retained in solid beads ([1]; anti-solvent Octanol:ethanol (80:20)) [%] | % active agent retained in solid beads ([1]; anti-solvent Octanol:ethanol (90:10)) [%] | % active agent retained in solid beads ([1]; anti-solvent Pentane) [%] | % active agent retained in solid beads ([1]; anti-solvent Pentanol) [%] | retention of the active ([1]; lactide/glycolide polymer as bead polymer, various C3 to C8 alcohols as anti-solvent) [%] | dissolution in warm water [2] | Compound
1 | 63 | 78 | 76 | 84 | 94 | 92 | 60 to 95 | – | CCNC(=O)[C@@H]1CCCN1C(=O)[C@H](CCCNC(=N)N)NC(=O)[C@H](CC(C)C)NC(=O)[C@@H](CC(C)C)NC(=O)[C@H](Cc1ccc(O)cc1)NC(=O)[C@H](CO)NC(=O)[C@H](Cc1c[nH]c2ccccc12)NC(=O)[C@H](Cc1c[nH]cn1)NC(=O)[C@@H]1CCC(=O)N1 [leuprolide acetate, Leuprolide acetate]
2 | – | – | – | – | – | – | – | dissolved in warm water | OC[C@@H](O)[C@@H](O)[C@H](O)[C@H](O)CO [mannitol]
3 | – | – | – | – | – | – | – | readily dissolved in warm water | dextran

— patent US9656228B2, “Device and method for making solid beads” (Midatech Pharma (Wales) Limited, priority 2008, dated 2017)
